Values of other authors, collected in US9907752B2, “Bendamustine solid dispersions and continuous infusion” (priority 2014, dated 2018).
Values after ≈ are worked out from the molar mass of the structure shown.

What was measured:
[1] = aqueous solution

Compound: Cn1c(CCCC(=O)O)nc2cc(N(CCCl)CCCl)ccc21 [bendamustine, 4-{5-[Bis(2-chloroethyl)amino]-1-methyl-2-benzimidazolyl}butyric acid]
- hydrolysis reaction half times [1]: measured in hours rather than seconds

Compound: OC[C@@H](O)[C@@H](O)[C@H](O)[C@H](O)CO [mannitol]
- solubility in DMSO (DMSO): ~36 mg/mL (≈ 198 mM)
- solubility in water (water): ~36 mg/mL (≈ 198 mM)
